In brackets after ≈: the same amount, converted by molar mass.
Assays:
Format in all cases: cell-based
[1] = system: S. aureus (ATCC 25923); assay: antibacterial microdilution assay, S. aureus; settings: for MIC: Staphylococcus aureus, ATCC25923, 6 h at 37 °C, read-out: MIC against S. aureus
Procedure: (§1) The isolates were evaluated in vitro for their cytotoxic activities against two human cancer cell lines, namely lung carcinoma (A549) and colon adenocarcinoma (DLD-1), as well as against one healthy cell line (WS1) using the resazurin reduction test. Etoposide was used as a positive control (IC50 ≤ 1.0 µM). […] The antibacterial activity of isolated compounds was also evaluated in vitro against E. coli and S. aureus using the microdilution assay with gentamycin as a positive control (MIC < 0.1 µg/mL).
(§2) Antibacterial activity was evaluated using the microdilution method with some modifications. Briefly,
(§3) exponentially growing bacteria were plated in 96-well flat-bottom microplates (BD Falcon) at a density of
(§4) 5 × 103 Gram-negative E. coli (ATCC 25922) or 40 × 103 Gram-positive S. aureus (ATCC 25923) per
(§5) well in 100 μL nutrient broth (Difco). Increasing concentrations of compounds in DMSO (Sigma-Aldrich)
(§6) were then added (100 μL per well). The final concentration of DMSO in the culture medium was
(§7) maintained at 0.25% (v/v) to avoid solvent toxicity. Fifty microliters of 4% resazurin was added to each
(§8) well and the microplates were incubated for 6 h at 37 °C. Absorbance was measured after 6 h on an
(§9) automated 96-well Varioskan plate reader (Thermo-Labsystems) at wavelengths of 600 nm and 660 nm
(§10) for E. coli and S. aureus respectively.

[2] = system: lung carcinoma (A549); assay: cytotoxicity, resazurin reduction test, A549; settings: Homo sapiens, 48 h incubation, read-out: IC50 (concentration inhibiting 50% of cell growth), A549
Procedure: as §1
(§11) 23-Oxo-3,4-seco-9βH-lanosta-4(28),7-diene-3,26-dioic acid (9): white amorphous solid; [α]22 −26.9° (c
(§12) Cytotoxic activity bioassay
(§13) Lung carcinoma (A549), colon adenocarcinoma (DLD-1) and normal skin fibroblast (WS1) human cell
(§14) lines were purchased from the American Type Culture Collection (ATCC). All cell lines were cultured in […]
(§15) solvent toxicity. Cytotoxicity was assessed using resazurin reduction test on an automated 96-well
(§16) Fluoroskan Ascent F1TM plate reader (Labsystems) using excitation and emission wavelengths of 530 nm
(§17) and 590 nm, respectively. Fluorescence was proportional to the cellular metabolic activity in each well.
(§18) Survival percentages were defined as the fluorescence in experimental wells compared to that in control
(§19) wells after subtraction of blank values. Cytotoxicity results were expressed as mean ± standard deviation […]

[3] = system: normal skin fibroblast (WS1); assay: cytotoxicity, resazurin reduction test, WS1; settings: Homo sapiens, WS1 healthy cell line, 48 h incubation, read-out: IC50 (concentration inhibiting 50% of cell growth), WS1
Procedure: as §1, §11, §12, §13, §14, §15, §16, §17, §18, §19

[4] = system: colon adenocarcinoma (DLD-1); assay: cytotoxicity, resazurin reduction test, DLD-1; settings: Homo sapiens, 48 h incubation, read-out: IC50 (concentration inhibiting 50% of cell growth), DLD-1
Procedure: as §1, §11, §12, §13, §14, §15, §16, §17, §18, §19

[5] = system: E. coli (ATCC 25922); assay: antibacterial microdilution assay, E. coli; settings: 6 h at 37 °C
Procedure: as §1, §2, §3, §4, §5, §6, §7, §8, §9, §10

Row | Compound | MIC [1] [µM] | IC50 [2] [nM] | further results
1 | C=C(CC(=O)CC(C)C1CCC2(C)C3CCC4C(C)(C)C(O)CCC45CC35CCC12C)C(=O)O (single isomer, unassigned; (+)) [Compound 4, (+)-rel-3α-hydroxy-23-oxocycloart-25(27)-en-26-oic acid] | 25 (≈ 11.8 µg/mL) | – | –
2 | C=C(C)C1CC=C2C(CCC23C(=C)CCC3(C)C(C)CC(=O)C=C(C)C(=O)O)C1(C)CCC(=O)OC (single isomer, unassigned; (-)) [Compound 1, (−)-rel-abiesonic acid 3-methyl ester] | 25 (≈ 12.4 µg/mL) | – | –
3 | C=C(C)C1CC=C2C(CCC23C(=C)CCC3(C)C(C)CC(=O)C=C(C)C(=O)O)C1(C)CCC(=O)O (centres unmarked) [Compound 6, abiesonic acid] | – | 22000 | –
4 | COc1cc([C@@H]2c3cc4c(cc3[C@@H](O[C@@H]3O[C@@H]5CO[C@@H](C)O[C@H]5[C@H](O)[C@H]3O)[C@H]3COC(=O)[C@H]23)OCO4)cc(OC)c1O [Etoposide] | – | ≤ 1000 | IC50 [3]: ≤ 1000 nM; IC50 [4]: ≤ 1000 nM
5 | gentamycin | – | – | MIC against S. aureus (positive control) ([1]; 6 h at 37 °C): < 0.1 µg/mL; MIC against E. coli (positive control) [5]: < 0.1 µg/mL
